Values quoted from earlier work in patent US7153867B2, “Use of nitrogen substituted thalidomide analogs for the treatment of macular degenerator” (Celgene Corporation, priority 2001, dated 2006).

System: vascular endothelial cell proliferation
Settings: in vitro; endothelial versus tumor cell proliferation

CO[C@@H]1[C@H](OC(=O)NC(=O)CCl)CC[C@]2(CO2)[C@H]1[C@@]1(C)O[C@@H]1CC=C(C)C [AGM-1470]
half-maximal inhibition of vascular endothelial cell proliferation at lower concentration than tumor cell proliferation: 4 logs
